Data reported in ChEMBL document CHEMBL5705903, “A DNA Hypomethylation Signature Predicts Antitumor Activity of LSD1 Inhibitors in SCLC” (Cancer Cell, 2015).
pEC50, pIC50: −log10 of the molar value.

Assays:
Vasopressin V1a receptor = Vasopressin V1a receptor (Homo sapiens, UniProt P37288); experiment: Antagonist activity at V1a receptor (unknown origin); format: functional
[1] = target: Solute carrier organic anion transporter family member 1B1 (Homo sapiens, UniProt Q9Y6L6); experiment: Inhibition of OATP1B1 (unknown origin)
[2] = target: Potassium voltage-gated channel subfamily A member 5 (Homo sapiens, UniProt P22460); experiment: Inhibition of Kv1.5 (unknown origin)
[3] = target: Beta-2 adrenergic receptor (Homo sapiens, UniProt P07550); experiment: Agonist activity at Adrenergic b2 receptor (unknown origin); format: functional
Acetylcholinesterase = Acetylcholinesterase (Homo sapiens, UniProt P22303); experiment: Inhibition of AChE (unknown origin)
[4] = target: T1, 5-hydroxytryptamine receptor 2C (Homo sapiens, UniProt P28335); experiment: Agonist activity at 5-HT2C receptor (unknown origin); format: functional
T1 sequence (P28335 whole entry): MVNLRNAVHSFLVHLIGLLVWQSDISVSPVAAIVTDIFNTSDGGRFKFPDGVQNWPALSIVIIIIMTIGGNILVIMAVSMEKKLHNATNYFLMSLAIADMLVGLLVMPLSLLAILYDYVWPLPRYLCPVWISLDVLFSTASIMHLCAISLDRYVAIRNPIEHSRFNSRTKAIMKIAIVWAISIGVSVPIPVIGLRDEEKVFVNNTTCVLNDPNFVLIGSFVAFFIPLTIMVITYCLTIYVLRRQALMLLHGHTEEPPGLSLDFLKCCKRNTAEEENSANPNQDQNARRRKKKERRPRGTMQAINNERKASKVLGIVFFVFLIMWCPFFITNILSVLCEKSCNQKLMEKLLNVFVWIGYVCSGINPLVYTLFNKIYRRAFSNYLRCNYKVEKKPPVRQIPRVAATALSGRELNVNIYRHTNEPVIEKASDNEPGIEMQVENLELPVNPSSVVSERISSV

[5] = target: Alpha-1B adrenergic receptor (Homo sapiens, UniProt P35368); experiment: Agonist activity at Adrenergic a1B receptor (unknown origin); format: functional
[6] = target: T2, Muscarinic acetylcholine receptor M2 (Homo sapiens, UniProt P08172); experiment: Antagonist activity at Muscarinic M2 receptor (unknown origin); format: functional
T2 sequence (P08172 whole entry): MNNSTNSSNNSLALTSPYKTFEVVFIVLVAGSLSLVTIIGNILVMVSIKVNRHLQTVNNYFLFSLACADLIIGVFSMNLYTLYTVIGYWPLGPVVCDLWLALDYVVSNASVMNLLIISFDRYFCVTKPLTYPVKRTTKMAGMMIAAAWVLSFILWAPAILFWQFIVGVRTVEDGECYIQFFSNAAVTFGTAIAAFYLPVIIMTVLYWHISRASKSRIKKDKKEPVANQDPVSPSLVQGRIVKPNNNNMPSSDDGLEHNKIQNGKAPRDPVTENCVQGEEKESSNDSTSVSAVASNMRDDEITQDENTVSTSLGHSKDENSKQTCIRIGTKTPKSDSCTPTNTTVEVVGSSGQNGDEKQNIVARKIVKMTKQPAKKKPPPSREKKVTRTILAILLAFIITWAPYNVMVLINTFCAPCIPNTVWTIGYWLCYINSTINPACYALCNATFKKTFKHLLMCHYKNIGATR

[7] = target: cGMP-inhibited 3',5'-cyclic phosphodiesterase 3A (Homo sapiens, UniProt Q14432); experiment: Inhibition of PDE3A (unknown origin)
[8] = target: Serotonin 3 (5-HT3) receptor; experiment: Inhibition of 5-HT3 receptor (unknown origin); format: protein-complex assay, Homo sapiens
[9] = Inhibition of COX (unknown origin); set-up: species or system Homo sapiens
[10] = target: T3, 5-hydroxytryptamine receptor 1B (Homo sapiens, UniProt P28222); experiment: Agonist activity at 5-HT1B receptor (unknown origin); format: functional
[11] = target: T4, Muscarinic acetylcholine receptor M1 (Homo sapiens, UniProt P11229); experiment: Antagonist activity at Muscarinic M1 receptor (unknown origin); format: functional
T4 sequence (P11229 whole entry): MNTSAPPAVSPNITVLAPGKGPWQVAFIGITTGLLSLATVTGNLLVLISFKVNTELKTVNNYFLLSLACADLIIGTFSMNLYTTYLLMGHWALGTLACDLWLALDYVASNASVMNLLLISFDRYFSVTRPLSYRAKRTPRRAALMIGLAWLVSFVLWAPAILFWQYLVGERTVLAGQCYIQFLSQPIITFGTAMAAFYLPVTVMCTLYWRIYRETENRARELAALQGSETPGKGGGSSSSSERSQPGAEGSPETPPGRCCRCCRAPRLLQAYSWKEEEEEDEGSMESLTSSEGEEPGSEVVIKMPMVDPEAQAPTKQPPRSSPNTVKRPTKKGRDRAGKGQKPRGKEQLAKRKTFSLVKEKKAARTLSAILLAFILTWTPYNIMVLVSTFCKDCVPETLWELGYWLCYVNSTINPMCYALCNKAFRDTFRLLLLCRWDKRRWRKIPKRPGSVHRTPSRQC

[12] = target: Voltage-gated potassium channel, IKs; KCNQ1(Kv7.1)/KCNE1(MinK) (Homo sapiens, UniProt P15382+P51787); experiment: Inhibition of KCNQ1/minK (unknown origin); format: protein-complex assay
[13] = target: T5, Kappa-type opioid receptor (Homo sapiens, UniProt P41145); experiment: Antagonist activity at KOR (unknown origin); format: functional
D(1A) dopamine receptor = D(1A) dopamine receptor (Homo sapiens, UniProt P21728); experiment: Antagonist activity at Dopamine D1 receptor (unknown origin); format: functional
[14] = target: Sodium-dependent serotonin transporter (Homo sapiens, UniProt P31645); experiment: Inhibition of SERT (unknown origin)
Adenosine receptor A2a = Adenosine receptor A2a (Homo sapiens, UniProt P29274); experiment: Agonist activity at Adenosine A2a receptor (unknown origin); format: functional
[15] = target: Voltage-gated inwardly rectifying potassium channel KCNH2 (Homo sapiens, UniProt Q12809); experiment: Inhibition of hERG (unknown origin); format: toxicity
[16] = target: T6, 5-hydroxytryptamine receptor 2A (Homo sapiens, UniProt P28223); experiment: Agonist activity at 5-HT2A receptor (unknown origin); format: functional
D(2) dopamine receptor = D(2) dopamine receptor (Homo sapiens, UniProt P14416); experiment: Agonist activity at Dopamine D2 receptor (unknown origin); format: functional
[17] = target: T2, Muscarinic acetylcholine receptor M2; experiment: Agonist activity at Muscarinic M2 receptor (unknown origin); format: functional
[18] = target: T4, Muscarinic acetylcholine receptor M1; experiment: Agonist activity at Muscarinic M1 receptor (unknown origin); format: functional
[19] = target: Nuclear receptor subfamily 1 group I member 2 (Homo sapiens, UniProt O75469); experiment: Activation of PXR (unknown origin)
[20] = target: T3, 5-hydroxytryptamine receptor 1B; experiment: Antagonist activity at 5-HT1B (unknown origin); format: functional
[21] = target: T5, Kappa-type opioid receptor; experiment: Agonist activity at KOR (unknown origin); format: functional
[22] = target: Tyrosine-protein kinase Lck (Homo sapiens, UniProt P06239); experiment: Inhibition of LCK (unknown origin)
[23] = target: Sodium-dependent noradrenaline transporter (Homo sapiens, UniProt P23975); experiment: Inhibition of NET (unknown origin)
[24] = target: T6, 5-hydroxytryptamine receptor 2A; experiment: Antagonist activity at 5-HT2A receptor (unknown origin); format: functional
[25] = Inhibition of AChR receptor (unknown origin); set-up: species or system Homo sapiens
[26] = target: Aryl hydrocarbon receptor (Homo sapiens, UniProt P35869); experiment: Activation of AhR (unknown origin)
[27] = target: Phosphatidylinositol 4,5-bisphosphate 3-kinase catalytic subunit gamma isoform (Homo sapiens, UniProt P48736); experiment: Inhibition of PI3Kgamma (unknown origin)

T6 sequence (P28223 whole entry): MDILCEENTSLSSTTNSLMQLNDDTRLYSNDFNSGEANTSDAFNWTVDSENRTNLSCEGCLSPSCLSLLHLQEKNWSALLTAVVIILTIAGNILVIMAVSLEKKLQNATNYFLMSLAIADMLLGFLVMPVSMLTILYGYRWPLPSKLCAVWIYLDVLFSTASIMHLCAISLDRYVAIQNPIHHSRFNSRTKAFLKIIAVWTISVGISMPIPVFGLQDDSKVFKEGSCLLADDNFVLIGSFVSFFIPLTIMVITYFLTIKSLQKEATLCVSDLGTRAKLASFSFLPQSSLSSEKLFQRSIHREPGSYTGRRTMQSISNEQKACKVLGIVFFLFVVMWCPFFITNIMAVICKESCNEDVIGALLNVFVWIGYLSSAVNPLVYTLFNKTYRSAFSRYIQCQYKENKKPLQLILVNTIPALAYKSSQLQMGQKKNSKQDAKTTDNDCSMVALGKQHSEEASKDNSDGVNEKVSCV
T3 sequence (P28222 whole entry): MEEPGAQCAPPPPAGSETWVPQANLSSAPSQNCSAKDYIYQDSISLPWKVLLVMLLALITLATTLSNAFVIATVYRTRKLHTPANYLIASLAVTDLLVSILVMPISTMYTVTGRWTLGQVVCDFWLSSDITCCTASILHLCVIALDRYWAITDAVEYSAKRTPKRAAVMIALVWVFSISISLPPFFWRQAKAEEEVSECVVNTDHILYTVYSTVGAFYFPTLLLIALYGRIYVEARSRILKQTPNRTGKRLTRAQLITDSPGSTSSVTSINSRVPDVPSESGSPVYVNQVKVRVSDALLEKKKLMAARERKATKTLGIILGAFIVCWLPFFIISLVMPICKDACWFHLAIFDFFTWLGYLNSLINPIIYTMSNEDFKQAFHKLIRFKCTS
T5 sequence (P41145 whole entry): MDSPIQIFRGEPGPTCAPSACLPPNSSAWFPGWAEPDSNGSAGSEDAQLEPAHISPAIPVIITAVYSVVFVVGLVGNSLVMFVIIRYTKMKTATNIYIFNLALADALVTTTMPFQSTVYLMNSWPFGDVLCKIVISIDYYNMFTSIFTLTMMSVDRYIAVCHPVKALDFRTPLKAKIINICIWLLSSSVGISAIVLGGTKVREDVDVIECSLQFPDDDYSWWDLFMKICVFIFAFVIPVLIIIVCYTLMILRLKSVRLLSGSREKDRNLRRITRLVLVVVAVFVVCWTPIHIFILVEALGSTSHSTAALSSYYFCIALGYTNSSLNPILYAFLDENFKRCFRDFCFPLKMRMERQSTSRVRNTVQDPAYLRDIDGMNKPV
Sequence of Beta-2 adrenergic receptor (P07550 whole entry): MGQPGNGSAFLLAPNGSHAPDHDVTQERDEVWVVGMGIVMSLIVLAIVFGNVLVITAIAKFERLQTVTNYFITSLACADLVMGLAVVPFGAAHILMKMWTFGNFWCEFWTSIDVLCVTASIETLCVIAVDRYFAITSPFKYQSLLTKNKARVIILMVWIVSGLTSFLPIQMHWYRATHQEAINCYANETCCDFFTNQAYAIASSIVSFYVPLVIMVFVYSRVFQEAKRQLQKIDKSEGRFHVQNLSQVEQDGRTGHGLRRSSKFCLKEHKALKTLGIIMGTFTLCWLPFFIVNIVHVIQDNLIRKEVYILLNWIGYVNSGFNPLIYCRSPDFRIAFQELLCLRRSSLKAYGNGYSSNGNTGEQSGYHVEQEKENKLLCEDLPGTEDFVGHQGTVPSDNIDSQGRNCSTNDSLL
Sequence of Potassium voltage-gated channel subfamily A member 5 (P22460 whole entry): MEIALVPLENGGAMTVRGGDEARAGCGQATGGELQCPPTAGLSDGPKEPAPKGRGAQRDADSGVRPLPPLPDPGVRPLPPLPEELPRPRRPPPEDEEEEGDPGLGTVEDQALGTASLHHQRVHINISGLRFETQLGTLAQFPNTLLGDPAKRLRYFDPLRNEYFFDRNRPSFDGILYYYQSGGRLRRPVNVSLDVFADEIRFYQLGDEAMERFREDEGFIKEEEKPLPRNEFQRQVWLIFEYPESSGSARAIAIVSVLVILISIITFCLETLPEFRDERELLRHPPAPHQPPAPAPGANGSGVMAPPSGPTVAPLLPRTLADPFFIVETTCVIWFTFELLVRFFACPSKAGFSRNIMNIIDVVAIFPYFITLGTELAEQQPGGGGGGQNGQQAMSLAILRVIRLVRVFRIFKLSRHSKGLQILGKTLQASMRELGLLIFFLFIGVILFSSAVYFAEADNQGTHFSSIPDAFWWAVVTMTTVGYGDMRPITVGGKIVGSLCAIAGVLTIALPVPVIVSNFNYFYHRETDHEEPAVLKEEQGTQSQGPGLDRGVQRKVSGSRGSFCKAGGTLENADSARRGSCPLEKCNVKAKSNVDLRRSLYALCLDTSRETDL
Sequence of Solute carrier organic anion transporter family member 1B1 (Q9Y6L6 whole entry): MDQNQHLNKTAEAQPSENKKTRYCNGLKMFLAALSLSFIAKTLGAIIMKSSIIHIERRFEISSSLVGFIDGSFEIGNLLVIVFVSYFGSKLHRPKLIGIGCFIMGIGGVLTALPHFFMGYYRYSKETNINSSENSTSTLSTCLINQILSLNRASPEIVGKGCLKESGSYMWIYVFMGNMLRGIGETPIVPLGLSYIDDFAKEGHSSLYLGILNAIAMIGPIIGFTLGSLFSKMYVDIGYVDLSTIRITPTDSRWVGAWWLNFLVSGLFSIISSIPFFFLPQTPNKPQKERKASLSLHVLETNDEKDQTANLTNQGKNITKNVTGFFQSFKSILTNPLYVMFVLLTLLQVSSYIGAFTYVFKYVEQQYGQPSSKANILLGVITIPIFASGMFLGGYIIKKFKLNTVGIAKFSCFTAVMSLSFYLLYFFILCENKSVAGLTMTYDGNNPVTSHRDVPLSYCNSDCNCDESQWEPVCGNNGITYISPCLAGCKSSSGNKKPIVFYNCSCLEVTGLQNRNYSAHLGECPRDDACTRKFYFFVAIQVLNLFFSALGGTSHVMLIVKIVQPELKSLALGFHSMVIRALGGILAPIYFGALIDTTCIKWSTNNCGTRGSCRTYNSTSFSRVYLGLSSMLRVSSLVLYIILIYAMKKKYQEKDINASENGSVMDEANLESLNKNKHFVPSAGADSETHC
Sequence of cGMP-inhibited 3',5'-cyclic phosphodiesterase 3A (Q14432 whole entry): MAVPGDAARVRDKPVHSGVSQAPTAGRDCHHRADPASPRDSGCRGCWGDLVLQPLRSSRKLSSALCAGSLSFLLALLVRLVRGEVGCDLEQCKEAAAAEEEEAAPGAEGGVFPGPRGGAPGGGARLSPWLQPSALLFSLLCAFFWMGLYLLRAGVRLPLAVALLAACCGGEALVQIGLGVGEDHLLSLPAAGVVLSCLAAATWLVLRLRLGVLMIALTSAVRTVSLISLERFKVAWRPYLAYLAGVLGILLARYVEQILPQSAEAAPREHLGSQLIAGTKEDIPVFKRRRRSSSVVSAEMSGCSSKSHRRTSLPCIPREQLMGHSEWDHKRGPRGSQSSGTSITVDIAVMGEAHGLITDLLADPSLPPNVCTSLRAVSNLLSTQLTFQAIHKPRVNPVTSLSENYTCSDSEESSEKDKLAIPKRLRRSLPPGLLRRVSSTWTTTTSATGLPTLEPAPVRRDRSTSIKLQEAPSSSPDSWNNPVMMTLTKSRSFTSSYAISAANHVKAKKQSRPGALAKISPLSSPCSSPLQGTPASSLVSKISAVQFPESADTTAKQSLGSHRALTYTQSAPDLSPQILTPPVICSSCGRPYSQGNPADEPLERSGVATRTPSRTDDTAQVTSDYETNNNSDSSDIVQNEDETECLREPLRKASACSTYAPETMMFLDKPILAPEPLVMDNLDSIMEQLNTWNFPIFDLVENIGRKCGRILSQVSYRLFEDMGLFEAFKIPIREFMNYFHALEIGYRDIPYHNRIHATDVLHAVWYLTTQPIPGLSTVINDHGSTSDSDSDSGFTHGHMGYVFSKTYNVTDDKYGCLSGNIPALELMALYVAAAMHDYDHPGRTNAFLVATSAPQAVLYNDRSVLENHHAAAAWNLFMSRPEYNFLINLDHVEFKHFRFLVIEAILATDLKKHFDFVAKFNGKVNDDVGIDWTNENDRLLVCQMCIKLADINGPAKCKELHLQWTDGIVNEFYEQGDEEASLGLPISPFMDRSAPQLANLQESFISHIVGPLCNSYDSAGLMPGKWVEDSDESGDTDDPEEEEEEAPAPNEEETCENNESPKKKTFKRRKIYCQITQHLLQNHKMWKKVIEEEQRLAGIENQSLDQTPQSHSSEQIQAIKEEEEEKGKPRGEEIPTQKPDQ
Sequence of Tyrosine-protein kinase Lck (P06239 whole entry): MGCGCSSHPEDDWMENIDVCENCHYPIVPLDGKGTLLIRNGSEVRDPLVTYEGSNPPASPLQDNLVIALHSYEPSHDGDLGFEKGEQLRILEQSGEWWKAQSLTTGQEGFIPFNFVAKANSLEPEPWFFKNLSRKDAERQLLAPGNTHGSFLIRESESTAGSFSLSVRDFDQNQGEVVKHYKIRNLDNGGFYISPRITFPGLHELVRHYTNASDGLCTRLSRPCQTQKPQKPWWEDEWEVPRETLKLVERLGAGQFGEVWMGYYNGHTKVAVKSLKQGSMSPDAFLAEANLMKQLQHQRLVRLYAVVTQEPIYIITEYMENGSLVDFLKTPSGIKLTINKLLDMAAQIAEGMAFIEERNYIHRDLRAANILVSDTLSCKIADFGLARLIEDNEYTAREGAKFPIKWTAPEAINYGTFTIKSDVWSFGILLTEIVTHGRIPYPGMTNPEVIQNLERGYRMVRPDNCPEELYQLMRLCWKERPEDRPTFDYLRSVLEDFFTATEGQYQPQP
Sequence of Vasopressin V1a receptor (P37288 whole entry): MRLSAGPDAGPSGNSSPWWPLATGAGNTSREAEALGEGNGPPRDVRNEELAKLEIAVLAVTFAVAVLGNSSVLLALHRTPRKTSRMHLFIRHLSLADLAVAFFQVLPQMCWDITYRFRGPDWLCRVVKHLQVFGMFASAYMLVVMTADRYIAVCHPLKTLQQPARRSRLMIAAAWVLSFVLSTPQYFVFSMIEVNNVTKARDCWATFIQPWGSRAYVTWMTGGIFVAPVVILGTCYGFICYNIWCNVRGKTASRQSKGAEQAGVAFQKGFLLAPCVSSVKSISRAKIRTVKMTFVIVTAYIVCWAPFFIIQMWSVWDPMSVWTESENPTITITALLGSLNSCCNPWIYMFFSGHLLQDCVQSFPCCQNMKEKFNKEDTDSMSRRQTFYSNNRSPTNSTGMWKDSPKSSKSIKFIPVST

| Compound | pEC50 (Vasopressin V1a receptor) | pIC50 [1] | pIC50 [2] | pEC50 [3] | pIC50 (Acetylcholinesterase) | pEC50 [4] | pEC50 [5] | pEC50 [6] | pIC50 [7] | pIC50 [8] | pIC50 [9] | pEC50 [10] | pEC50 [11] | pIC50 [12] | pEC50 [13] | pEC50 (D(1A) dopamine receptor) | pIC50 [14] | pEC50 (Adenosine receptor A2a) | pIC50 [15] | pEC50 [16] | further results |
| --- | --- | --- | --- | --- | --- | --- | --- | --- | --- | --- | --- | --- | --- | --- | --- | --- | --- | --- | --- | --- | --- |
| c1ccc([C@@H]2C[C@H]2NC2CCNCC2)cc1 | < 4.52 | < 4.52 | < 4.52 | < 4.00 | < 4.00 | < 4.60 | < 4.60 | < 4.52 | < 4.00 | < 4.52 | < 4.00 | 5.30 | < 4.52 | < 4.60 | < 4.00 | < 4.00 | 5.70 | < 4.00 | < 4.52 | < 4.60 | pEC50 (D(2) dopamine receptor): < 4.00; pEC50 [17]: < 4.52; pEC50 [18]: < 4.52; pEC50 [19]: < 4.52; pEC50 [20]: < 4.00; pEC50 [21]: < 4.00; pIC50 [22]: < 4.49; pIC50 [23]: 4.60; pEC50 [24]: 4.80; pIC50 [25]: < 4.30; pEC50 [26]: < 4.00; pIC50 [27]: < 4.49 |
| O=C(O)c1ccc(CN2CCC(CN[C@@H]3C[C@H]3c3ccccc3)CC2)cc1 [GSK2879552] | < 4.52 | < 4.52 | < 4.52 | < 4.49 | < 4.00 | < 4.40 | < 4.40 | < 4.80 | < 4.00 | < 4.52 | 4.60 | < 4.49 | < 4.80 | < 4.60 | < 4.00 | < 4.49 | 4.10 | < 4.49 | < 4.60 | < 4.40 | pEC50 (D(2) dopamine receptor): 4.70; pEC50 [17]: < 4.80; pEC50 [18]: < 4.80; pEC50 [19]: < 4.52; pEC50 [20]: < 4.52; pEC50 [21]: < 4.00; pIC50 [22]: < 4.49; pIC50 [23]: < 4.00; pEC50 [24]: 4.70; pIC50 [25]: < 4.30; pEC50 [26]: < 4.00; pIC50 [27]: < 4.49 |
